Literature values as cited in patent US4782898A, “Determining residual oil saturation using carbon 14 labeled carbon dioxide” (priority 1986, dated 1988).

Row | distribution coefficient, Ki (ratio of concentration of tracer in the oil phase to that in the water phase) | SMILES
1 | about 2 | O=C=O [CO2, carbon dioxide]
2 | about 2 | O=[14C]=O [carbon 14 labeled CO2]
